We go through three molecules from patent US9206427B2, “Compositions, kits, and methods for the modulation of immune responses using galectin-1” (Dana-Farber Cancer Institute, Inc., priority 2007, dated 2015).

Read-outs that look alike come from different tables or passages of the source.

One series deals with normal activated T-cells. Put plainly: rGal1-induced apoptosis of activated T cells (FITC-annexin V and PI double staining). It is filed as cell-based, human. Particulars: activated T cells treated with rGal1 in the presence or absence of TDG; FIG. 4. Here is the method: Activated T-cells were either untreated or treated with rGal1 in the presence or absence of TDG. Thereafter, apoptosis was assessed by FITC-annexin V and PI double staining. The histograms (left panels) are representative of 3 separate experiments that were averaged to obtain the percent positive cells in the bar graphs (right panels).
Recombinant Gal1 was obtained and purified essentially as described (Toscano et al. (2006) J Immunol 176, 6323-6332). T cells were purified as described above and simultaneously activated with anti-CD3-(0.1 μg/mL) and anti-CD28-(0.5 μg/mL) coated latex beads (Invitrogen) and treated with rGal1 (20 μM) in RPMI 1640 medium containing 10% fetal bovine serum and 1 mM β-ME alone or rGal1 and the Gal1 inhibitor, thiodigalactoside (TDG, 100 mM) (Rabinovich et al. (1999) J Exp Med 190, 385-397) or left untreated for 16 hours. Supernatants were then analyzed for IL-4, IL-5, IL-10, and IL-13 using cytometric bead array (CBA) Flex Set beads according to manufacturer's protocol (BD Biosciences, San Jose, Calif.). […] Thereafter, the PE detection reagent was added and samples were incubated for an additional 2 hours, washed and analyzed using FACS Aria Flow Cytometer (BD Biosciences). Results were captured with FACS Diva software and analyzed with the FCAP1.1 program (BD Biosciences). […]

Series [1] concerns activated T cells. Description: Th2 cytokine production by rGal1-treated activated T cells (cytometric bead array). It is filed as cell-based, human. The following applies: anti-CD3/anti-CD28 activated T cells, rGal1 20 μM, TDG 100 mM, 16 hours; FIG. 3D. Here is the method:
Recombinant Gal1 was obtained and purified essentially as described (Toscano et al. (2006) J Immunol 176, 6323-6332). T cells were purified as described above and simultaneously activated with anti-CD3-(0.1 μg/mL) and anti-CD28-(0.5 μg/mL) coated latex beads (Invitrogen) and treated with rGal1 (20 μM) in RPMI 1640 medium containing 10% fetal bovine serum and 1 mM β-ME alone or rGal1 and the Gal1 inhibitor, thiodigalactoside (TDG, 100 mM) (Rabinovich et al. (1999) J Exp Med 190, 385-397) or left untreated for 16 hours. Supernatants were then analyzed for IL-4, IL-5, IL-10, and IL-13 using cytometric bead array (CBA) Flex Set beads according to manufacturer's protocol (BD Biosciences, San Jose, Calif.). In brief, multiplexed antibody-conjugated beads were incubated with culture supernatants or serial dilutions of cytokine standards for 1 hour. Thereafter, the PE detection reagent was added and samples were incubated for an additional 2 hours, washed and analyzed using FACS Aria Flow Cytometer (BD Biosciences). Results were captured with FACS Diva software and analyzed with the FCAP1.1 program (BD Biosciences).

Series [2] has as its system activated T cells. Put plainly: Analysis of regulatory T cells (CD4+ CD25high FOXP3+) by triple-color flow cytometry. Format: cell-based, human. The following applies: activated T cells treated with rGal1 or rGal1 and TDG, 24 hours; FIG. 3E. As for the experimental part: T cells were purified, activated with anti-CD3- and anti-CD28-coated latex beads and treated with rGal1, rGal1 and TDG or left untreated for 24 hours. Thereafter, cells were stained with CD4-FITC and CD25-APC, washed, fixed, permeabilized and stained with FOXP3-PE antibody or rat IgG2b isotype control as previously described (Zorn et al. (2006) Blood 108, 1571-1579) (Human Regulatory T-cell staining kit, eBioscience, San Diego, Calif.). CD4^+ CD25^high FOXP3 Treg cells were identified and quantified using Beckman Cytomics FC500 flow cytometer as previously described (Zorn et al. (2006) Blood 108, 1571-1579).
Background: Flow cytometry measures light scatter and fluorescence of single cells or particles in a stream.

A further series concerns Th1-dependent responses. Particulars: cited from earlier work; for Th1-dependent responses: murine models of chronic inflammatory / autoimmune disorders.
For series [3], the system named is activated T cells co-cultured with HD-MY-Z cells. Put plainly: Viable T cells after co-culture with Gal1 shRNA or SCR shRNA HD-MY-Z cHL cells (Annexin-V, CD3, CD4 flow cytometry). Format: cell-based, human. Particulars: PHA-activated T cells, 6 hours co-culture, Gal1 shRNA versus SCR shRNA HD-MY-Z; FIG. 3B. As for the experimental part: 1. Co-culture. Peripheral blood mononuclear cells (PBMCs) were obtained from normal blood donors by Ficoll-Hypaque (GE Healthcare) gradient centrifugation. Thereafter, T cells were purified using Pan T Cell Isolation Kit II (Miltenyi Biotec, Auburn, Calif.) and activated with 1 μg/mL PHA (Sigma-Aldrich) for 64 hours. 1×10^6 of activated T cells were then co-cultured with monolayers (3×10^6 cells) of HD-MY-Z cells expressing either scrambled shRNA or Gal1 specific shRNA for 6 hours at 37° C.
2. Analyses of viable T cells. Following co-culture, all cells were harvested and sequentially stained with CD3-PE and CD4-PE-Cy5 (Beckman Coulter, Fullerton, Calif.) followed by Annexin V-FITC and analyzed with a Beckman Cytomics FC500 flow cytometer. The numbers of viable (annexin V-) and (propidium iodide-) CD3^+ and CD4^+ T cells in Gal1 shRNA or scrambled shRNA HD-MY-Z/T-cell co-cultures were then compared.

Series [4] has as its system CD4+ T cells co-cultured with HD-MY-Z cells. Description: T-bet and GATA-3 expression in co-cultured CD4+ T cells (QPCR). Particulars: CD4+ cells after 24-48 hours co-culture, Gal1 shRNA versus SCR shRNA HD-MY-Z; FIG. 3C. Format: cell-based, human. As for the experimental part:
3. Analyses of T-bet and GATA-3 expression in co-cultured CD4^+ T cells. After PHA-activated T-cells were co-cultured with HD-MY-Z cells expressing either scrambled shRNA or Gal1 specific shRNA for 24-48 hours, cells were collected and non-viable cells were depleted by Ficoll-Hypaque gradient centrifugation. Remaining viable cells were washed, incubated with CD4 MACS microbeads and purified using a MACS LS column according to the manufacturer's protocol (Miltenyi Biotec). Thereafter, RNA was obtained from the isolated CD4^+ cells and cDNA was synthesized from total RNA (3 μg) as described above. GATA-3, T-bet and GAPDH (housekeeping control) transcript abundance was evaluated by QPCR using Power SYBR green PCR Master Mix (Applied Biosystems, Foster City, Calif.), GAPDH primers listed above and the following GATA3 and T-bet primers: GATA3, Forward: […] (SEQ ID NO: 14); GATA3, Reverse: ACACCTGGCTCCCGTGGT (SEQ ID NO: 15); T-bet, Forward: […] (SEQ ID NO: 16); T-bet, Reverse: […] (SEQ ID NO: 17). PCR and transcript abundance analysis was performed as described above. GATA-3 and T-bet expression in purified CD4^+ cells from SCR shRNA and Gal1 shRNA HD-MY-Z/T-cell cocultures were then compared.

In another series the test system is Gal1. Description: RNA-interference mediated Gal1 knock-down in HD-MY-Z cells (immunoblot). Format: cell-based, human. Particulars: HD-MY-Z cells transduced with pSIREN-RetroQ vector; FIG. 3A. From the text: DLBCL and cHL cell lines were maintained as previously described (Mathas et al. (2002) Embo J 21, 4104-4113; Polo et al. (2007) Proc Natl Acad Sci USA 104, 3207-3212). Cells were lysed, size-fractionated on NuPAGE Novex 4-12% Bis-Tris Gels (Invitrogen, Carlsbad, Calif.), and transferred to PVDF membranes (Millipore Corp., Bedford, Mass.). Membranes were immunostained with purified Gal1 rabbit IgG (Rubinstein et al. (2004) Cancer Cell 5, 241-251) and HRP-conjugated donkey anti-rabbit antibody (GE Healthcare, Piscataway, N.J.) and developed using a chemiluminescent method (ECL, GE Healthcare).
Gal1 specific siRNA was designed using siRNA Selection Program (Yuan et al. (2004) Nucleic Acids Res 32, W130-134) (available on the World Wide Web at jura.wi.mit.edu/bioc/siRNAext/), synthesized as single-stranded DNA oligonucleotides by Integrated DNA Technologies (IDT, Inc., Coralville, Iowa) and annealed. […]
(A western blot detects proteins with antibodies after separation by electrophoresis.)

A further series concerns HD-MY-Z cells. Put plainly: Proliferation rate and viability of transduced HD-MY-Z cells. It is filed as cell-based, human. Particulars: after Gal1 knockdown. From the text: Gal1 specific siRNA was designed using siRNA Selection Program (Yuan et al. (2004) Nucleic Acids Res 32, W130-134) (available on the World Wide Web at jura.wi.mit.edu/bioc/siRNAext/), synthesized as single-stranded DNA oligonucleotides by Integrated DNA Technologies (IDT, Inc., Coralville, Iowa) and annealed. Gal1-specific oligonucleotide (Gal1 RNAi, […] (SEQ ID NO: 12) or scrambled oligonucleotide (SCR, […] (SEQ ID NO: 13) were ligated into the linearized pSIREN-RetroQ retroviral vector (BD Clontech, Mountain View, Calif.). Generation of recombinant retrovirus and infection of HD-MY-Z cells was performed as previously described (Juszczynski et al. (2006) Mol Cell Biol 26, 5348-5359). After infection, cells were subjected to puromycin selection (0.5 μg/mL) and subcloning by limiting dilution. Thereafter, whole-cell extracts of obtained subclones were prepared and screened for Gal1 expression by immunoblotting as described above.

Regarding `OC[C@H]1O[C@@H](S[C@@H]2O[C@H](CO)[C@H](O)[C@H](O)[C@H]2O)[C@H](O)[C@@H](O)[C@H]1O` [TDG, thiodigalactoside, reference compound], in the series on normal activated T-cells, the “apoptosis of total activated T cells” value is “completely blocked rGal1-induced apoptosis”. Further, in the series on activated T cells [1], the IL-4 in supernatants entry is “specifically blocked this effect”, the IL-5 in supernatants result was “specifically blocked this effect”, the IL-10 in supernatants entry is given as “specifically blocked this effect” and the IL-13 in supernatants entry is recorded as “specifically blocked this effect”. Moreover, in the series on activated T cells [2], the “CD4+ CD25high FOXP3+ Treg population” value was “completely blocked this effect”.

Take “rGal1: recombinant Gal1 (galectin-1), a glycan-binding protein”: in the series on normal activated T-cells, the “apoptosis of total activated T cells” value is “induced apoptosis”. In addition, in the series on activated T cells [1], the IL-4 in supernatants entry is given as “significantly higher amounts”, the IL-5 in supernatants entry is given as “significantly higher amounts”, the IL-10 in supernatants entry is listed as “significantly higher amounts” and the IL-13 in supernatants result is reported as “significantly higher amounts”. Besides, the “CD4+ CD25high FOXP3+ Treg population” value with activated T cells [2] is “significantly increased”. In the series with Th1-dependent responses (murine models of Th1-driven chronic inflammatory and autoimmune disorders), the cytokine profile entry is “skewed towards Th2 cytokine profiles”. Moreover, the Th1-dependent responses entry in the series on Th1-dependent responses (listed as Gal1) is “dramatically suppressed”. For the same molecule, the Th1-dependent responses result in the series on Th1-dependent responses (listed as recombinant Gal1) is given as “suppressed”. Also, in the series with Th1-dependent responses (murine models of chronic inflammatory diseases), the “T-cell susceptibility to activation-induced cell death” value was “increased”.

For the molecule “Gal1 shRNA: pSIREN-RetroQ retroviral vector encoding Gal1-specific shRNA; target sequence GCTGCCAGATGGATACGAA (SEQ ID NO: 1) (DNA GATCCGCTGCCAGATGGATACGAATTCAAGAGATTCGTATCCATCTGGCAGCTTTTTTG)”, in series [3], the “viable Th (CD4+) T cells” value was “significantly fewer viable total (CD3^+) and Th (CD4^+) T cells in control (SCR) HD-MY-Z co-cultures than in co-cultures of HD-MY-Z cells with Gal1 knockdown”; the “viable total (CD3+) T cells” value is “significantly fewer viable total (CD3^+) and Th (CD4^+) T cells in control (SCR) HD-MY-Z co-cultures than in co-cultures of HD-MY-Z cells with Gal1 knockdown”. Further, in series [4], the “expression of GATA-3 (Th2-specific transcription factor)” value is given as “higher expression of GATA-3 than CD4^+ T cells from Gal1 shRNA HD-MY-Z co-cultures” and the “expression of T-bet (Th1-specific transcription factor)” value is “control (SCR) HD-MY-Z cells exhibited significantly lower expression of T-bet”. In addition, the Gal1 protein expression result in the series on Gal1 is “can be blocked”. The “proliferation rate or viability of transduced HD-MY-Z cells” value in the series with HD-MY-Z cells is “did not alter”.
